Laboratory results reported in patent publication US20150105252A1, “SUBSTITUTED PYRAZOLES AS HERBICIDES” (E I DU PONT DE NEMOURS AND COMPANY, priority 2013, published 2015).

What was measured:
crabgrass, large [1] = test: Test A preemergence; type: in vivo, Digitaria sanguinalis; details: preemergence
In short: (§1)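 Visual injury ratings, 0 = no effect to 100 = complete control, taken about 10 days after treatment against untreated controls. Test chemicals, in a non-phytotoxic surfactant-containing solvent, were sprayed onto soil preemergence or onto one- to two-leaf plants (2–10 cm) postemergence, in loam–sand soil under greenhouse conditions.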

rice = test: Test B flood; type: in vivo, Oryza sativa; details: 250 g ai/ha, visual rating on 0 to 100 scale (0 no effect, 100 complete control), 13 to 15 days
In short: (§2)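 Paddy-water application: seedlings at 2-leaf stage, flood depth 3 cm maintained for the test duration. Evaluation after 13–15 days in the greenhouse by eye relative to controls; 0–100 scale.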

foxtail, giant [2] = test: Test A preemergence; type: in vivo, Setaria faberii; details: preemergence
In short: as §1

crabgrass, large [3] = test: Test A postemergence; type: in vivo, Digitaria sanguinalis
In short: as §1

velvetleaf [4] = test: Test A preemergence; type: in vivo, Abutilon theophrasti; details: preemergence
In short: as §1

barnyardgrass [5] = test: Test B flood; type: in vivo, Echinochloa crus-galli; details: 250 g ai/ha, visual rating on 0 to 100 scale (0 no effect, 100 complete control), 13 to 15 days
In short: as §2

corn [6] = test: Test A postemergence; type: in vivo, Zea mays
In short: as §1

barnyardgrass [7] = test: Test A preemergence; type: in vivo, Echinochloa crus-galli; details: preemergence
In short: as §1

wheat [8] = test: Test A preemergence; type: in vivo, Triticum aestivum; details: preemergence
In short: as §1

barnyardgrass [9] = test: Test A postemergence; type: in vivo, Echinochloa crus-galli
In short: as §1

pigweed [10] = test: Test A postemergence; type: in vivo, Amaranthus retroflexus
In short: as §1

pigweed [11] = test: Test A preemergence; type: in vivo, Amaranthus retroflexus; details: preemergence
In short: as §1

velvetleaf [12] = test: Test A postemergence; type: in vivo, Abutilon theophrasti
In short: as §1

wheat [13] = test: Test A postemergence; type: in vivo, Triticum aestivum
In short: as §1

corn [14] = test: Test A preemergence; type: in vivo, Zea mays; details: preemergence
In short: as §1

morningglory [15] = test: Test A postemergence; type: in vivo, Ipomoea spp.
In short: as §1

ducksalad = test: Test B flood; type: in vivo, Heteranthera limosa; details: 250 g ai/ha, visual rating on 0 to 100 scale (0 no effect, 100 complete control), 13 to 15 days
In short: as §2

morningglory [16] = test: Test A preemergence; type: in vivo, Ipomoea spp.; details: preemergence
In short: as §1

sedge, umbrella = test: Test B flood; type: in vivo, Cyperus difformis; details: 250 g ai/ha, visual rating on 0 to 100 scale (0 no effect, 100 complete control), 13 to 15 days
In short: as §2

foxtail, giant [17] = test: Test A postemergence; type: in vivo, Setaria faberii
In short: as §1

[18] = 125 g ai/ha, visual injury, 0 to 100 scale, approx. 10 days
[19] = 500 g ai/ha, visual injury after approx. 10 days, 0 to 100 scale (0 no effect, 100 complete control)
[20] = Postemergence, 500 g ai/ha, visual rating after approx. 10 days, 0 to 100 scale (0 no effect, 100 complete control)
[21] = postemergence, 125 g ai/ha, about 10 days, visual rating on 0 to 100 scale (0 no effect, 100 complete control)

CCCc1cc(C(=O)NC2CC2)nn1Oc1ccnc(C(F)(F)F)c1 [Compound 93]
40: Barnyardgrass plant response rating (barnyardgrass [9]; [20]) | Wheat plant response rating (wheat [13]; [20])
80: Crabgrass, Large plant response rating (crabgrass, large [3]; [20]) | Corn plant response rating (corn [14]; [19]) | Foxtail, Giant plant response rating (foxtail, giant [17]; [20])
20: Crabgrass, Large plant response rating (crabgrass, large [3]; [21]) | Pigweed plant response rating (pigweed [10]; [21]) | Velvetleaf plant response rating (velvetleaf [12]; [20]) | Wheat plant response rating (wheat [13]; [21]) | Foxtail, Giant plant response rating (foxtail, giant [17]; [21])
100: Crabgrass, Large plant response rating (crabgrass, large [1]; [19]) | Foxtail, Giant plant response rating (foxtail, giant [2]; [19]) | Pigweed plant response rating (pigweed [11]; [19])
70: Crabgrass, Large plant response rating (crabgrass, large [1]; [18])
50: Plant response rating, Ducksalad (ducksalad) | Morningglory plant response rating (morningglory [16]; [19]) | Plant response rating, Sedge, Umbrella (sedge, umbrella)
0: Plant response rating, Rice (rice) | Velvetleaf plant response rating (velvetleaf [4]; [18]) | Velvetleaf plant response rating (velvetleaf [4]; [19]) | Plant response rating, Barnyardgrass (barnyardgrass [5]) | Corn plant response rating (corn [6]; [21]) | Barnyardgrass plant response rating (barnyardgrass [7]; [18]) | Wheat plant response rating (wheat [8]; [18]) | Barnyardgrass plant response rating (barnyardgrass [9]; Postemergence, 125 g ai/ha, 0 to 100 scale, 0 no effect, 100 complete control) | Velvetleaf plant response rating (velvetleaf [12]; [21]) | Corn plant response rating (corn [14]; [18]) | Morningglory plant response rating (morningglory [15]; [21]) | Morningglory plant response rating (morningglory [16]; [18])
60: Pigweed plant response rating (pigweed [10]; [20]) | Morningglory plant response rating (morningglory [15]; [20])
90: Corn plant response rating (corn [6]; [20]) | Barnyardgrass plant response rating (barnyardgrass [7]; [19])
30: Foxtail, Giant plant response rating (foxtail, giant [2]; [18]) | Wheat plant response rating (wheat [8]; [19]) | Pigweed plant response rating (pigweed [11]; [18])

CCc1cc(C(=O)NOC)nn1Cc1ccnc(C(F)(F)F)c1 [Compound 99]
60: Crabgrass, Large plant response rating (crabgrass, large [3]; [21]) | Wheat plant response rating (wheat [8]; [19]) | Morningglory plant response rating (morningglory [16]; [18]) | Foxtail, Giant plant response rating (foxtail, giant [17]; [21])
20: Barnyardgrass plant response rating (barnyardgrass [9]; [21]) | Velvetleaf plant response rating (velvetleaf [12]; [21]) | Wheat plant response rating (wheat [13]; [21])
80: Velvetleaf plant response rating (velvetleaf [4]; [19])
10: Velvetleaf plant response rating (velvetleaf [4]; [18])
0: Plant response rating, Rice (rice) | Plant response rating, Barnyardgrass (barnyardgrass [5]) | Wheat plant response rating (wheat [8]; [18])
40: Barnyardgrass plant response rating (barnyardgrass [7]; [18])
70: Pigweed plant response rating (pigweed [10]; [21]) | Wheat plant response rating (wheat [13]; [20])
50: Corn plant response rating (corn [6]; [21]) | Corn plant response rating (corn [14]; [18]) | Morningglory plant response rating (morningglory [15]; [21]) | Plant response rating, Ducksalad (ducksalad)
90: Foxtail, Giant plant response rating (foxtail, giant [2]; [18]) | Corn plant response rating (corn [6]; [20]) | Barnyardgrass plant response rating (barnyardgrass [9]; [20]) | Pigweed plant response rating (pigweed [11]; [18]) | Velvetleaf plant response rating (velvetleaf [12]; [20]) | Corn plant response rating (corn [14]; [19])
100: Crabgrass, Large plant response rating (crabgrass, large [1]; [18]) | Crabgrass, Large plant response rating (crabgrass, large [1]; [19]) | Foxtail, Giant plant response rating (foxtail, giant [2]; [19]) | Crabgrass, Large plant response rating (crabgrass, large [3]; [20]) | Barnyardgrass plant response rating (barnyardgrass [7]; [19]) | Pigweed plant response rating (pigweed [10]; [20]) | Pigweed plant response rating (pigweed [11]; [19]) | Morningglory plant response rating (morningglory [15]; [20]) | Morningglory plant response rating (morningglory [16]; [19]) | Foxtail, Giant plant response rating (foxtail, giant [17]; [20])
75: Plant response rating, Sedge, Umbrella (sedge, umbrella)

CCc1cc(-c2ccc(F)cc2)nn1Cc1ccnc(C(F)(F)F)c1 [Compound 111]
30: Crabgrass, Large plant response rating (crabgrass, large [3]; [21]) | Velvetleaf plant response rating (velvetleaf [4]; [19]) | Wheat plant response rating (wheat [13]; [20]) | Morningglory plant response rating (morningglory [16]; [19])
80: Barnyardgrass plant response rating (barnyardgrass [9]; [20]) | Pigweed plant response rating (pigweed [10]; [21])
0: Wheat plant response rating (wheat [8]; [18]) | Wheat plant response rating (wheat [8]; [19]) | Corn plant response rating (corn [14]; [18]) | Corn plant response rating (corn [14]; [19]) | Plant response rating, Ducksalad (ducksalad) | Morningglory plant response rating (morningglory [16]; [18])
15: Plant response rating, Barnyardgrass (barnyardgrass [5])
40: Velvetleaf plant response rating (velvetleaf [12]; [21]) | Foxtail, Giant plant response rating (foxtail, giant [17]; [21])
10: Velvetleaf plant response rating (velvetleaf [4]; [18]) | Corn plant response rating (corn [6]; [21]) | Barnyardgrass plant response rating (barnyardgrass [7]; [18]) | Wheat plant response rating (wheat [13]; [21])
90: Crabgrass, Large plant response rating (crabgrass, large [1]; [18]) | Foxtail, Giant plant response rating (foxtail, giant [2]; [18]) | Barnyardgrass plant response rating (barnyardgrass [7]; [19]) | Velvetleaf plant response rating (velvetleaf [12]; [20]) | Morningglory plant response rating (morningglory [15]; [21]) | Plant response rating, Sedge, Umbrella (sedge, umbrella)
100: Crabgrass, Large plant response rating (crabgrass, large [1]; [19]) | Foxtail, Giant plant response rating (foxtail, giant [2]; [19]) | Crabgrass, Large plant response rating (crabgrass, large [3]; [20]) | Pigweed plant response rating (pigweed [10]; [20]) | Pigweed plant response rating (pigweed [11]; [19]) | Morningglory plant response rating (morningglory [15]; [20]) | Foxtail, Giant plant response rating (foxtail, giant [17]; [20])
20: Plant response rating, Rice (rice) | Barnyardgrass plant response rating (barnyardgrass [9]; [21]) | Pigweed plant response rating (pigweed [11]; [18])
50: Corn plant response rating (corn [6]; [20])

CCc1cc(-c2ccc(Br)cc2)nn1Cc1ccnc(C(F)(F)F)c1 [Compound 112]
20: Plant response rating, Rice (rice) | Crabgrass, Large plant response rating (crabgrass, large [3]; [20]) | Plant response rating, Barnyardgrass (barnyardgrass [5]) | Barnyardgrass plant response rating (barnyardgrass [9]; [20]) | Velvetleaf plant response rating (velvetleaf [12]; [21]) | Foxtail, Giant plant response rating (foxtail, giant [17]; [20])
40: Velvetleaf plant response rating (velvetleaf [12]; [20]) | Wheat plant response rating (wheat [13]; [20]) | Morningglory plant response rating (morningglory [15]; [21])
70: Crabgrass, Large plant response rating (crabgrass, large [1]; [18]) | Foxtail, Giant plant response rating (foxtail, giant [2]; [18]) | Morningglory plant response rating (morningglory [15]; [20])
10: Crabgrass, Large plant response rating (crabgrass, large [3]; [21]) | Velvetleaf plant response rating (velvetleaf [4]; [19]) | Barnyardgrass plant response rating (barnyardgrass [7]; [19]) | Wheat plant response rating (wheat [13]; [21]) | Foxtail, Giant plant response rating (foxtail, giant [17]; [21])
90: Crabgrass, Large plant response rating (crabgrass, large [1]; [19]) | Pigweed plant response rating (pigweed [10]; [20])
50: Pigweed plant response rating (pigweed [11]; [19])
80: Foxtail, Giant plant response rating (foxtail, giant [2]; [19])
0: Velvetleaf plant response rating (velvetleaf [4]; [18]) | Corn plant response rating (corn [6]; [21]) | Barnyardgrass plant response rating (barnyardgrass [7]; [18]) | Wheat plant response rating (wheat [8]; [18]) | Wheat plant response rating (wheat [8]; [19]) | Barnyardgrass plant response rating (barnyardgrass [9]; [21]) | Pigweed plant response rating (pigweed [11]; [18]) | Corn plant response rating (corn [14]; [18]) | Corn plant response rating (corn [14]; [19]) | Plant response rating, Ducksalad (ducksalad) | Morningglory plant response rating (morningglory [16]; [18]) | Morningglory plant response rating (morningglory [16]; [19]) | Plant response rating, Sedge, Umbrella (sedge, umbrella)
30: Corn plant response rating (corn [6]; [20]) | Pigweed plant response rating (pigweed [10]; [21])

CCc1cc(-c2ccc(C(F)(F)F)cc2)nn1Cc1nc(C(F)(F)F)nn1C [Compound 115]
90: Crabgrass, Large plant response rating (crabgrass, large [1]; [18]) | Foxtail, Giant plant response rating (foxtail, giant [2]; [18]) | Foxtail, Giant plant response rating (foxtail, giant [2]; [19]) | Crabgrass, Large plant response rating (crabgrass, large [3]; [20]) | Pigweed plant response rating (pigweed [10]; [21]) | Pigweed plant response rating (pigweed [11]; [18])
20: Plant response rating, Rice (rice) | Velvetleaf plant response rating (velvetleaf [4]; [18]) | Velvetleaf plant response rating (velvetleaf [4]; [19]) | Corn plant response rating (corn [6]; [21]) | Barnyardgrass plant response rating (barnyardgrass [7]; [18]) | Wheat plant response rating (wheat [8]; [19]) | Corn plant response rating (corn [14]; [19])
40: Corn plant response rating (corn [6]; [20]) | Wheat plant response rating (wheat [13]; [20]) | Morningglory plant response rating (morningglory [16]; [19])
50: Crabgrass, Large plant response rating (crabgrass, large [3]; [21])
80: Barnyardgrass plant response rating (barnyardgrass [7]; [19]) | Morningglory plant response rating (morningglory [15]; [20]) | Plant response rating, Sedge, Umbrella (sedge, umbrella) | Foxtail, Giant plant response rating (foxtail, giant [17]; [20])
0: Plant response rating, Barnyardgrass (barnyardgrass [5]) | Wheat plant response rating (wheat [8]; [18]) | Wheat plant response rating (wheat [13]; [21]) | Corn plant response rating (corn [14]; [18]) | Plant response rating, Ducksalad (ducksalad) | Morningglory plant response rating (morningglory [16]; [18])
30: Barnyardgrass plant response rating (barnyardgrass [9]; [21]) | Morningglory plant response rating (morningglory [15]; [21]) | Foxtail, Giant plant response rating (foxtail, giant [17]; [21])
100: Crabgrass, Large plant response rating (crabgrass, large [1]; [19]) | Pigweed plant response rating (pigweed [10]; [20]) | Pigweed plant response rating (pigweed [11]; [19]) | Velvetleaf plant response rating (velvetleaf [12]; [20])
60: Barnyardgrass plant response rating (barnyardgrass [9]; [20]) | Velvetleaf plant response rating (velvetleaf [12]; [21])
